What was measured:
Caco-2 cells = details: ref Gertz et al., 2013; cited from earlier work
CYP3A [1] = test: MDZ kinetics used for initial estimates; assay type: biochemical, rat
[2] = substrate related parameter; ref Kotegawa et al., 2002, Matsuda et al., 2012; cited from earlier work
CYP3A [3] = details: substrate related parameter; ref Kirby et al., 2011; cited from earlier work

Row | Structure (SMILES) | Papp (Caco-2 cells) [×10⁻⁶ cm/s] | kcat (k3) (CYP3A [1]; initial estimate from experimental samples without inhibitor) | Km (CYP3A [1]; rat, liver microsomes) [µM] | Fg (fraction escaping gut) [2] | fm (fraction metabolized by CYP3A) (CYP3A [3])
1 | CC[C@H]1OC(=O)[C@H](C)[C@@H](O[C@H]2C[C@@](C)(OC)[C@@H](O)[C@H](C)O2)[C@H](C)[C@@H](O[C@@H]2O[C@H](C)C[C@H](N(C)C)[C@H]2O)[C@](C)(O)C[C@@H](C)C(=O)[C@H](C)[C@@H](O)[C@]1(C)O [ERY, erythromycin] | 0.44 | – | – | – | –
2 | Cc1ncc2n1-c1ccc(Cl)cc1C(c1ccccc1F)=NC2 [MDZ, midazolam] | 32.4 | approx. 10 min^−1 | 10 | 0.75 | 0.93

Source: PMC5742070 (Xenobiotica; the fate of foreign compounds in biological …, 2020)
